These results are taken from patent publication US6403139B1, “Process for treating fruit and vegetables using tocopherols as antioxidants” (Xeda International, priority 1999, dated 2002).

The test relates to Granny Smith apples. Nature of the test: Anti-scald treatment on apples, treating composition applied for 3 minutes by immersion or spraying, then 8 days storage at 20° C. The procedure: The examples which follow illustrate the invention in further detail. In these examples, the treating composition, preheated to 50° C., is applied for 3 minutes to Granny Smith apples, by immersion or spraying. Treating composition (Composition A) consists of water and 1500 ppm of α-tocopherol. The treatment is carried out by applying the treating composition, brought to 50° C., to the apples for 3 minutes. The treated apples are then stored at ambient temperature (20° C.) for 8 days. The proportion of healthy apples, the proportion of apples for which less than 1 cm^2 of surface area is deteriorated by scald, and the proportion of apples for which more than 1 cm^2 of surface area is affected are then quantified. The apples are treated under the same conditions as in Example 1. By way of additional comparison, the same amount of apples was treated with composition D maintained at ambient temperature (i.e. between 20 and 22° C.). The apples thus treated were then stored for 8 days at ambient temperature (20° C.).

With `Cc1c(C)c2c(c(C)c1O)CC[C@@](C)(CCC[C@H](C)CCC[C@H](C)CCCC(C)C)O2` [vitamin e, 5,7,8-trimethyltocol], the “antioxidant activity at ambient temperature” value is listed as “virtually zero”.
